US12343326B2, “Psychoactive medicines and their use for treating psychiatric and neurological conditions and disorders” (Transcend Therapeutics, Inc., priority 2021, dated 2025)

Legend:
Test in all cases: β-arrestin based GPCR screen (PathHunter / GPCRmax), antagonist mode
168 GPCRs [1] = molecular target: 168 GPCRs (Homo sapiens, UniProt O14842)
168 GPCRs [2] = molecular target: 168 GPCRs (Homo sapiens, UniProt O95977)
168 GPCRs [3] = molecular target: 168 GPCRs (Homo sapiens, UniProt P08913); details: ADRA2A, Antagonist
Chain of 168 GPCRs (Homo sapiens, UniProt P08913) (P08913 whole entry): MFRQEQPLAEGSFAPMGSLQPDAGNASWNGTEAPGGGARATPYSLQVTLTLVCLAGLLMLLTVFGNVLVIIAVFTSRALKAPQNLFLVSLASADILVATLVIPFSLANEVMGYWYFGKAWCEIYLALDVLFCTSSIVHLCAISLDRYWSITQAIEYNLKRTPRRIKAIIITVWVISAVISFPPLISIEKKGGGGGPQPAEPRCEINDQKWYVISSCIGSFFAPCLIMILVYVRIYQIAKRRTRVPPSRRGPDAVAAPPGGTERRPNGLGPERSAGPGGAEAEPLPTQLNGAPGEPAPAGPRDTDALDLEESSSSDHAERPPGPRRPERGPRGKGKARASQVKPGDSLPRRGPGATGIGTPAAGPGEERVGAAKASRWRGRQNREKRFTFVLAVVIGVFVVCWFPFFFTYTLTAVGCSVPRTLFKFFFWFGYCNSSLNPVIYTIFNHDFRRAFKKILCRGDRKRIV

168 GPCRs [4] = molecular target: T1, 168 GPCRs (Homo sapiens, UniProt P0DMS8); details: ADORA3, Antagonist
T1 sequence (P0DMS8 1-318): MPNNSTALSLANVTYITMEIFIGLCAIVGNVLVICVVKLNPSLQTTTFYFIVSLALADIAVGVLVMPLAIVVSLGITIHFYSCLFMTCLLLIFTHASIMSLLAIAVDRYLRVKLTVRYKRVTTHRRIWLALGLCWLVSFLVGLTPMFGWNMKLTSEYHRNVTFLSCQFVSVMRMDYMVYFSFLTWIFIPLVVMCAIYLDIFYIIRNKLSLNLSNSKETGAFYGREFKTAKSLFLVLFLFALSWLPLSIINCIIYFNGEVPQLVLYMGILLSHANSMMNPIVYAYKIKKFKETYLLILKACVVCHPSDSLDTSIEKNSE

168 GPCRs [5] = molecular target: 168 GPCRs (Homo sapiens, UniProt P18089); details: ADRA2B, Antagonist
Chain of 168 GPCRs (Homo sapiens, UniProt P18089) (P18089 whole entry): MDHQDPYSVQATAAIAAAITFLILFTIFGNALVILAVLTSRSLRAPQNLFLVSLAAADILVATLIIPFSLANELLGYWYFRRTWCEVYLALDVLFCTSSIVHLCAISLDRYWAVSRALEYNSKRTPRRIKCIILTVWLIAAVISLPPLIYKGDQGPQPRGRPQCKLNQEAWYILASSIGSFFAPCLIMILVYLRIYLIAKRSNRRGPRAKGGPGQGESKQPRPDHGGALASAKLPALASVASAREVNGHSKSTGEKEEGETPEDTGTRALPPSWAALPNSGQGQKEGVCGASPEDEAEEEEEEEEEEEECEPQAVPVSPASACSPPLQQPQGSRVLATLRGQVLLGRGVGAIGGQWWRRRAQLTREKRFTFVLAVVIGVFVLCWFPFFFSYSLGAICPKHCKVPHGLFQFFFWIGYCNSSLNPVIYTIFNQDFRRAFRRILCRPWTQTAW

168 GPCRs [6] = molecular target: 168 GPCRs (Homo sapiens, UniProt P25106)
Chain of 168 GPCRs (Homo sapiens, UniProt P25106) (P25106 whole entry): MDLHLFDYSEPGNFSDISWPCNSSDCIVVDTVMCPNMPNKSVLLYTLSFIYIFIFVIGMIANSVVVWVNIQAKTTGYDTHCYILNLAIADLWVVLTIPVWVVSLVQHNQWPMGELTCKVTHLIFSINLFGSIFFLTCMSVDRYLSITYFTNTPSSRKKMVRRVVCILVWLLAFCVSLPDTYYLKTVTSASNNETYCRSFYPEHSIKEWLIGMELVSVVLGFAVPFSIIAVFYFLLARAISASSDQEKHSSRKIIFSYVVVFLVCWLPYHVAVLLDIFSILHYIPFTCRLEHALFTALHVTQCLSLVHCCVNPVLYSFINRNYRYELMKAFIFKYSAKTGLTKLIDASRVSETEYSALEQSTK

168 GPCRs [7] = molecular target: 168 GPCRs (Homo sapiens, UniProt P28566); details: HTR1E
168 GPCRs [8] = molecular target: 168 GPCRs (Homo sapiens, UniProt P29371)
Chain of 168 GPCRs (Homo sapiens, UniProt P29371) (P29371 whole entry): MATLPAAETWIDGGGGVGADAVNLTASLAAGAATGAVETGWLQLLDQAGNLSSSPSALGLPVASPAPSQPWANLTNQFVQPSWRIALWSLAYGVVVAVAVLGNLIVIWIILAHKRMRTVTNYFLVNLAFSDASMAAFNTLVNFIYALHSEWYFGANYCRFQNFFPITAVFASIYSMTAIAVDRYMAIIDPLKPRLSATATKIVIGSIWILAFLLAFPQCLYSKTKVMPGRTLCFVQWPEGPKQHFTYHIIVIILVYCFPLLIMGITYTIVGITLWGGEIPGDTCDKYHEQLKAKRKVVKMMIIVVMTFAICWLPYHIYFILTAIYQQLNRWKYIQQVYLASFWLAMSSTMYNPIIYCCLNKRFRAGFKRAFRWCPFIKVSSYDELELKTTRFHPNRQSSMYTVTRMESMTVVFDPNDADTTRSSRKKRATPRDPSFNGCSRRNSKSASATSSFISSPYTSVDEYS

168 GPCRs [9] = molecular target: 168 GPCRs (Homo sapiens, UniProt P30411); details: BDKRB2, Antagonist
Chain of 168 GPCRs (Homo sapiens, UniProt P30411) (P30411 whole entry): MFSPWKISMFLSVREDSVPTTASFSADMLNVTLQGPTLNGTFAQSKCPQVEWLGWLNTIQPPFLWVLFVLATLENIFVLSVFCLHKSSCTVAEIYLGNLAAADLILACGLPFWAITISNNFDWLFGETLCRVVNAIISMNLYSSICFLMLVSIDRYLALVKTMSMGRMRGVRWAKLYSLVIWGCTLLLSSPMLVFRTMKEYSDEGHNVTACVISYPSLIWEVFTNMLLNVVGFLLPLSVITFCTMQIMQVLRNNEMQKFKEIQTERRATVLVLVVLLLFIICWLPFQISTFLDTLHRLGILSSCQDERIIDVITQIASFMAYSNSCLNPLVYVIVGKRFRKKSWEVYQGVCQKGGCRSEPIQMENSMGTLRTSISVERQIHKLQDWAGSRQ

168 GPCRs [10] = molecular target: 168 GPCRs (Homo sapiens, UniProt P30556); details: AGTR1, Antagonist
168 GPCRs [11] = molecular target: 168 GPCRs (Homo sapiens, UniProt P34972)
Chain of 168 GPCRs (Homo sapiens, UniProt P34972) (P34972 whole entry): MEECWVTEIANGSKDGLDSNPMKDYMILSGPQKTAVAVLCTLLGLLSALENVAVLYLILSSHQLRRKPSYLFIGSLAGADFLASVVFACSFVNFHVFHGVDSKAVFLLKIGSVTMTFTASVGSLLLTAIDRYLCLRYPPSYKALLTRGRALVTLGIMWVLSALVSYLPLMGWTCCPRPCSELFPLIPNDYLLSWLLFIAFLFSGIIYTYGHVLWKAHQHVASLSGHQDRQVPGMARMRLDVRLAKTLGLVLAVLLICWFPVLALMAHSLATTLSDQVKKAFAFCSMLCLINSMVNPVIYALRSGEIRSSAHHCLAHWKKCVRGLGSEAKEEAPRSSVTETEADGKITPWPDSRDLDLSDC

168 GPCRs [12] = molecular target: 168 GPCRs (Homo sapiens, UniProt P35372)
168 GPCRs [13] = molecular target: 168 GPCRs (Homo sapiens, UniProt P46092); details: CCR10, Antagonist
168 GPCRs [14] = molecular target: 168 GPCRs (Homo sapiens, UniProt P47871); details: GCGR
168 GPCRs [15] = molecular target: 168 GPCRs (Homo sapiens, UniProt P50391)
Chain of 168 GPCRs (Homo sapiens, UniProt P50391) (P50391 whole entry): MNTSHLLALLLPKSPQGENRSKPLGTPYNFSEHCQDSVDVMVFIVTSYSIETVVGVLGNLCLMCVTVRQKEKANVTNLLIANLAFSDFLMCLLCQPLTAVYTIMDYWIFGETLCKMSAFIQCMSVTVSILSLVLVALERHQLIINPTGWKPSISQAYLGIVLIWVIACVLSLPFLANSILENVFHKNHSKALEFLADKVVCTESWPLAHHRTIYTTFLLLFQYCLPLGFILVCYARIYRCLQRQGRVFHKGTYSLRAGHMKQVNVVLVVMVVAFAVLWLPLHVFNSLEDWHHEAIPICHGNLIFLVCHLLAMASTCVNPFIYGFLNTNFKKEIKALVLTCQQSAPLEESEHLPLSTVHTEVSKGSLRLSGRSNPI

168 GPCRs [16] = molecular target: 168 GPCRs (Homo sapiens, UniProt P51679); details: CCR4, Antagonist
Chain of 168 GPCRs (Homo sapiens, UniProt P51679) (P51679 whole entry): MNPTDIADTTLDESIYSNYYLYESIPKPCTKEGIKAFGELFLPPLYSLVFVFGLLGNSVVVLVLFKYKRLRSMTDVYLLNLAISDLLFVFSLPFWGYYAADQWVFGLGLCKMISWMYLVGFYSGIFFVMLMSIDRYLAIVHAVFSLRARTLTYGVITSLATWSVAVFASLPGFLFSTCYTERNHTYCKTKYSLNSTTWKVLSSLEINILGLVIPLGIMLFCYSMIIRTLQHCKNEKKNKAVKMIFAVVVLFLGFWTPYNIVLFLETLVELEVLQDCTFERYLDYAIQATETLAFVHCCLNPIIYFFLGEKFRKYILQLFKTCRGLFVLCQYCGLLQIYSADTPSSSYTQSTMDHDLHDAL

168 GPCRs [17] = molecular target: 168 GPCRs (Homo sapiens, UniProt Q969V1)
168 GPCRs [18] = molecular target: 168 GPCRs (Homo sapiens, UniProt Q96LB2)
Chain of 168 GPCRs (Homo sapiens, UniProt Q96LB2) (Q96LB2 whole entry): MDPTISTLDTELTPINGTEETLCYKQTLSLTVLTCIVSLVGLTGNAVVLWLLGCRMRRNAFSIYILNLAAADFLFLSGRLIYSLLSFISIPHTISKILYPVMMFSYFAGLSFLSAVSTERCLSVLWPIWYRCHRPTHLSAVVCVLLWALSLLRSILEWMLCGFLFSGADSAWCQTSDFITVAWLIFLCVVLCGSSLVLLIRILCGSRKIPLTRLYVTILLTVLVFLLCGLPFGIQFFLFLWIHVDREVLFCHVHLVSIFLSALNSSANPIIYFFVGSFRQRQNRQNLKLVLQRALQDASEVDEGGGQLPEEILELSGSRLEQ

168 GPCRs [19] = molecular target: 168 GPCRs (Homo sapiens, UniProt Q9GZQ6)
Chain of 168 GPCRs (Homo sapiens, UniProt Q9GZQ6) (Q9GZQ6 whole entry): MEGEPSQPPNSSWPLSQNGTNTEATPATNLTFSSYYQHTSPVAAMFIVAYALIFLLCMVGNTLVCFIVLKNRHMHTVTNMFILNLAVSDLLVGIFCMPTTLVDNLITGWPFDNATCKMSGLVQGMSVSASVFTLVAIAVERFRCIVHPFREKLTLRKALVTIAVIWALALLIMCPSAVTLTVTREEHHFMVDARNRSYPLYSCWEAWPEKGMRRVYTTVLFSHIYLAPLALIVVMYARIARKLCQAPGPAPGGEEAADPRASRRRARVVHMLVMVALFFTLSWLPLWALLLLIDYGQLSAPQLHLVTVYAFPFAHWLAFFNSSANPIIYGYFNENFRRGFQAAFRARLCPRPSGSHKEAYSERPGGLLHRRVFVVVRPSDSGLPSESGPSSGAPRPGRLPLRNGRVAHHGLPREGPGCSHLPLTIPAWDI

168 GPCRs [20] = system: 168 GPCRs

Chain of 168 GPCRs (Homo sapiens, UniProt O14842) (O14842 whole entry): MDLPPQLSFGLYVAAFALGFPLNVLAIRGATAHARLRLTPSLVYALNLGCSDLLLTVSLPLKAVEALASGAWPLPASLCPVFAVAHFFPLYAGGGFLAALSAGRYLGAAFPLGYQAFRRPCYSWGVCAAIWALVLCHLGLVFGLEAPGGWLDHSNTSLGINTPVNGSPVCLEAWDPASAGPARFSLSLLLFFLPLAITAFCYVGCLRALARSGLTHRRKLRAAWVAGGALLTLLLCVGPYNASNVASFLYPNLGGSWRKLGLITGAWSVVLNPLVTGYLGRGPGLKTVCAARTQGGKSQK
Chain of 168 GPCRs (Homo sapiens, UniProt O95977) (O95977 whole entry): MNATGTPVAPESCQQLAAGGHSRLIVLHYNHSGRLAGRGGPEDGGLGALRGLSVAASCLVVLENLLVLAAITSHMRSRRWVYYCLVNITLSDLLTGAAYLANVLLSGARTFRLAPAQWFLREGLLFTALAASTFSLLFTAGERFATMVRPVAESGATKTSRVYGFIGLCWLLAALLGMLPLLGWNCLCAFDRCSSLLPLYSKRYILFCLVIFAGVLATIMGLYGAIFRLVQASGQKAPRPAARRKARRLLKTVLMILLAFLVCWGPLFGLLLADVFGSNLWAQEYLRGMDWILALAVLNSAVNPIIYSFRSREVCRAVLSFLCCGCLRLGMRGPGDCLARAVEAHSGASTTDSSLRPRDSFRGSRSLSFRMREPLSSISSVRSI

CNC(C)C(=O)c1ccc2c(c1)OCO2 (stereo not shown) [methylone, 3,4-methylenedioxy-N-methylcathinone]
activity at 10 µM (168 GPCRs [1]; FFAR1, Antagonist mode, 10 uM): -13.8%
activity at 1 µM (168 GPCRs [1]; FFAR1, Antagonist, 1 uM): -7.9%
activity at 10 µM (168 GPCRs [2]; EDG6, Antagonist mode, 10 uM): 7.8%
activity at 1 µM (168 GPCRs [2]; EDG6, Antagonist, 1 uM): 13.2%
activity at 1 µM (168 GPCRs [3]; 1 uM): -4.6%
activity at 10 µM (168 GPCRs [3]; 10 uM): 1.9%
activity at 1 µM (168 GPCRs [4]; 1 uM): 11.3%
activity at 10 µM (168 GPCRs [4]; 10 uM): 7.7%
activity at 1 µM (168 GPCRs [5]; 1 uM): 8.5%
activity at 10 µM (168 GPCRs [5]; 10 uM): 6.3%
activity at 10 µM (168 GPCRs [6]; CXCR7, Antagonist mode, 10 uM): 7.3%
activity at 1 µM (168 GPCRs [6]; CXCR7, Antagonist, 1 uM): 14.1%
activity at 10 µM (168 GPCRs [7]; Antagonist mode, 10 uM): 13.2%
activity at 1 µM (168 GPCRs [7]; Antagonist, 1 uM): 7.6%
activity at 10 µM (168 GPCRs [8]; TACR3, Antagonist mode, 10 uM): -14.3%
activity at 1 µM (168 GPCRs [8]; TACR3, Antagonist, 1 uM): -3.9%
activity at 1 µM (168 GPCRs [9]; 1 uM): 7.3%
activity at 10 µM (168 GPCRs [9]; 10 uM): -2.6%
activity at 1 µM (168 GPCRs [10]; 1 uM): 3.3%
activity at 10 µM (168 GPCRs [10]; 10 uM): -1.4%
activity at 10 µM (168 GPCRs [11]; CNR2, Antagonist mode, 10 uM): -3.2%
activity at 1 µM (168 GPCRs [11]; CNR2, Antagonist, 1 uM): 3.6%
activity at 10 µM (168 GPCRs [12]; OPRM1, OPRM1, Antagonist mode, 10 uM): -18%
activity at 1 µM (168 GPCRs [12]; OPRM1, OPRM1, Antagonist, 1 uM): -8%
activity at 1 µM (168 GPCRs [13]; 1 uM): 5.4%
activity at 10 µM (168 GPCRs [13]; 10 uM): 2.6%
activity at 10 µM (168 GPCRs [14]; Antagonist mode, 10 uM): -7.7%
activity at 1 µM (168 GPCRs [14]; Antagonist, 1 uM): -16%
activity at 10 µM (168 GPCRs [15]; PPYR1, Antagonist mode, 10 uM): 6.5%
activity at 1 µM (168 GPCRs [15]; PPYR1, Antagonist, 1 uM): 9.5%
activity at 1 µM (168 GPCRs [16]; 1 uM): 10%
activity at 10 µM (168 GPCRs [16]; 10 uM): 9.5%
activity at 10 µM (168 GPCRs [17]; MCHR2, Antagonist mode, 10 uM): -4.5%
activity at 1 µM (168 GPCRs [17]; MCHR2, Antagonist, 1 uM): 2%
activity at 10 µM (168 GPCRs [18]; MRGPRX1, Antagonist mode, 10 uM): -10.2%
activity at 1 µM (168 GPCRs [18]; MRGPRX1, Antagonist, 1 uM): -6.5%
activity at 10 µM (168 GPCRs [19]; NPFFR1, Antagonist mode, 10 uM): 27.1%
activity at 1 µM (168 GPCRs [19]; NPFFR1, Antagonist, 1 uM): 32%
antagonist activity at any of the 168 GPCRs (criterion >50% inhibition) (168 GPCRs [20]; 1 and 10 micromolar): did not meet criteria for agonist or antagonist activity
% Activity (168 GPCRs [20]; DRD2S, Antagonist mode, 10 uM): −11.6%
% Activity (168 GPCRs [20]; DRD2S, Antagonist, 1 uM): 3.6%
% Activity (168 GPCRs [20]; NPSR1b, Antagonist mode, 10 uM): −7.6%
% Activity (168 GPCRs [20]; NPSR1b, Antagonist, 1 uM): −10.6%
